Laboratory results as given in paper PMC11696576, “Next generation thiazolyl ketone inhibitors of cytosolic phospholipase A2 α for targeted cancer therapy” (Nature Communications, 2025).
Several values for one entry are separate records, joined by “and”; a condition that tells them apart may be missing. Equal entries are not always repeated.

Assays:
MV-4-11 cells = experiment: cell viability, resazurin assay, MV-4-11; assay type: cell-based, human; conditions: for cell viability relative to 0 µM = 100 (Figure S7b): MV-4-11, rep1-4, listed as AVX420
Description: Bjørn Tore Gjertsen (University of Bergen, Norway). […] The cell lines were not authenticated.
Figure S7. Sensitivity of cell lines derived from hematological malignancies. a. cell viability expressed as relative light units ( RLU) is plotted for all cell lines in the screen that were de-rived from hematological malignancies. b. corresponding IC50 values calculated by non-linear regression analysis. c. Cell viability assessed by resazurin assays in MV-4-11 and HL-60 cells.
Data were normalized to the vehicle-treated control (100%) and are the mean of 4 biological replicates ±stdev (MV-4-11) and 5 biological replicates ±stdev (HL-60), Non-linear regres- […]

recombinant human cPLA2α = target: T1, recombinant human cPLA2α (Homo sapiens, UniProt P47712); parameters: method as in PMID 25152071; conditions: previously published data ref 19, cited from earlier work
T1 sequence (P47712 1-749): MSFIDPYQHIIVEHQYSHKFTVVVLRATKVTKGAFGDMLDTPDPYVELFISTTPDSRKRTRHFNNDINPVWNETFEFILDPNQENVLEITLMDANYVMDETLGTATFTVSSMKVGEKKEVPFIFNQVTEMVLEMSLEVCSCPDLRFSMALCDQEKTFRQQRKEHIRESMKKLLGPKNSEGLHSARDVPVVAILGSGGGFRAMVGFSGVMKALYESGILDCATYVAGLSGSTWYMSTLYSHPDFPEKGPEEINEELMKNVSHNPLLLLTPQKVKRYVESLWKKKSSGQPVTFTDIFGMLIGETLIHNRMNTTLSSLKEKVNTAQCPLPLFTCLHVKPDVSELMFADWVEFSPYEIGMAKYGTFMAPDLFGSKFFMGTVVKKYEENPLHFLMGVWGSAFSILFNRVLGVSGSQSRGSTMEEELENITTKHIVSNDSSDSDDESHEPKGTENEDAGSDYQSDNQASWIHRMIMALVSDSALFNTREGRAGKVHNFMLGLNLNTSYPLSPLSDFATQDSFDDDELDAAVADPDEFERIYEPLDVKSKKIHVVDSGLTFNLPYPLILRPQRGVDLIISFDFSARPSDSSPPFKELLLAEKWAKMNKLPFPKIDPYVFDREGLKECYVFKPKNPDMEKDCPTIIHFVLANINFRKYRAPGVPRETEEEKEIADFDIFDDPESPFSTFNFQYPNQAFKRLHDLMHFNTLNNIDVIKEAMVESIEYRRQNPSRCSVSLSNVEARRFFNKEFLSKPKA

| SMILES | IC50 (MV-4-11 cells; Homo sapiens, MV4-11, resazurin assay) [µM] | cell viability relative to 0 µM = 100 (Figure S7b) (MV-4-11 cells; 0.00306 µM) | cell viability relative to 0 µM = 100 (Figure S7b) (MV-4-11 cells; 0.00919 µM) | cell viability relative to 0 µM = 100 (Figure S7b) (MV-4-11 cells; 0.02757 µM) | cell viability relative to 0 µM = 100 (Figure S7b) (MV-4-11 cells; 0.08272 µM) | cell viability relative to 0 µM = 100 (Figure S7b) (MV-4-11 cells; 0.24815 µM) | cell viability relative to 0 µM = 100 (Figure S7b) (MV-4-11 cells; 0.74444 µM) | cell viability relative to 0 µM = 100 (Figure S7b) (MV-4-11 cells; 2.23333 µM) | cell viability relative to 0 µM = 100 (Figure S7b) (MV-4-11 cells; 6.7 µM) | cell viability relative to 0 µM = 100 (Figure S7b) (MV-4-11 cells; 10 µM) | cell viability relative to 0 µM = 100 (Figure S7b) (MV-4-11 cells; 30 µM) | cPLA2α % Inhib (recombinant human cPLA2α; 0.091 mole fraction) [%] | cPLA2α XI(50) (recombinant human cPLA2α; XI(50) ± stdev) [mole fraction] |
| --- | --- | --- | --- | --- | --- | --- | --- | --- | --- | --- | --- | --- | --- |
| CCCCCCCOc1ccc(OCC(=O)c2nc(C(=O)OC)cs2)cc1 [GK420] | 5.7 | 107.974 and 94.1556 and 88.3103 and 111.814 | 108.045 and 93.3168 and 91.3448 and 113.05 | 114.954 and 104.137 and 83.3442 and 127.148 | 119.708 and 98.9766 and 68.867 and 129.045 | 113.432 and 105.146 and 76.1961 and 124.847 | 108.976 and 63.5816 and 66.7499 and 99.3411 | 103.119 and 55.0214 and 81.5625 and 89.0387 | 80.6879 and 58.6991 and 52.7781 and 45.3319 | 48.2149 and 41.1505 and 41.4878 and 26.408 | 40.7033 and 23.5083 and 29.7689 and 20.683 | – | – |
| CCCCCCCCc1ccc(OCC(=O)c2nc(C(=O)OC)cs2)cc1 [GK470] | – | – | – | – | – | – | – | – | – | – | – | >90 | 0.011 ± 0.005 |
